Source: ChEMBL document CHEMBL5316346, “Targeting Melanocortin Receptors Using SNAr-Type Macrocyclization: A Doubly Orthogonal Route to Cyclic Peptide Conjugates” (J Med Chem, 2023)

How the values were obtained:
Melanocortin receptor 4 [1] = target: T1, Melanocortin receptor 4 (Homo sapiens, UniProt P32245); test: Displacement of sCy5-MT-I from human MC4R stably expressed in human HEK293 cells incubated for 2 hrs by Cheng-Prusoff equation based FACS analysis; assay type: cell-based
[2] = target: T2, Melanocyte-stimulating hormone receptor (Homo sapiens, UniProt Q01726); test: Displacement of sCy5-MT-I from human MC1R stably expressed in human HEK293 cells incubated for 2 hrs by Cheng-Prusoff equation based FACS analysis; assay type: cell-based
Target sequence in this assay (Q01726 whole entry): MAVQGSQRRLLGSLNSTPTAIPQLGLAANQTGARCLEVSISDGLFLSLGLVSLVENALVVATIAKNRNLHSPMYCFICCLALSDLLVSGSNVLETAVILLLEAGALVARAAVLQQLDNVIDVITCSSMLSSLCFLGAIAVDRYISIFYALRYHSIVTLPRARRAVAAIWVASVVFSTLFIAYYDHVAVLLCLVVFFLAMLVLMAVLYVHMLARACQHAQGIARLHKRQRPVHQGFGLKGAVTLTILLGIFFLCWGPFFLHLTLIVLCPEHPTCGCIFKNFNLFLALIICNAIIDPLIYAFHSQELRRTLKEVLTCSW

Melanocortin receptor 5 [3] = target: T3, Melanocortin receptor 5 (Homo sapiens, UniProt P33032); test: Displacement of sCy5-MT-I from human MC5R stably expressed in human HEK293 cells incubated for 2 hrs by Cheng-Prusoff equation based FACS analysis; assay type: cell-based
T3 sequence (P33032 whole entry): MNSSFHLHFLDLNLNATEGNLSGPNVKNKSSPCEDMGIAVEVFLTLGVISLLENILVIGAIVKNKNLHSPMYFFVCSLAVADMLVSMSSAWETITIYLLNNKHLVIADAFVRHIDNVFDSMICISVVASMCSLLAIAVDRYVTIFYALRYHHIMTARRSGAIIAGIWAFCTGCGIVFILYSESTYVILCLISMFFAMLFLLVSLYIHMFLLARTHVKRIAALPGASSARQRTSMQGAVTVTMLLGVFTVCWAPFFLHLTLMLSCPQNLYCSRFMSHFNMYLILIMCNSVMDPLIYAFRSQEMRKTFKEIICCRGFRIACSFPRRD

Melanocortin receptor 5 [4] = target: T3, Melanocortin receptor 5; test: Agonist activity at human MC5R stably expressed in human Flp-In-293 cells assessed as cAMP accumulation incubated for 45 mins in presence of IBMX by Lance Ultra cAMP assay; assay type: functional, cell-based
Melanocortin receptor 3 [5] = target: T4, Melanocortin receptor 3 (Homo sapiens, UniProt P41968); test: Displacement of sCy5-MT-I from human MC3R stably expressed in human HEK293 cells incubated for 2 hrs by Cheng-Prusoff equation based FACS analysis; assay type: cell-based
T4 sequence (P41968 whole entry): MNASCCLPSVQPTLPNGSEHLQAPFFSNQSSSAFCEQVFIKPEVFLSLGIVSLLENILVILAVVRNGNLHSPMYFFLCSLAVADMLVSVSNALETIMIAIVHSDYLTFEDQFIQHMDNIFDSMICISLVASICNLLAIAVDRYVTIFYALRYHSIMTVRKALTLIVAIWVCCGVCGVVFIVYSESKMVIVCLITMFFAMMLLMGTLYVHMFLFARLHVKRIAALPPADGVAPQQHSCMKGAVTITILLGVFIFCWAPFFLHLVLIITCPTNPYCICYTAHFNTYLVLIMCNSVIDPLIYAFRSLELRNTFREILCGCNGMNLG

[6] = target: T2, Melanocyte-stimulating hormone receptor; test: Agonist activity at human MC1R stably expressed in human Flp-In-293 cells assessed as cAMP accumulation incubated for 45 mins in presence of IBMX by Lance Ultra cAMP assay; assay type: functional, cell-based
Target sequence in this assay (Q01726 whole entry): as the sequence (Q01726 whole entry) above

Melanocortin receptor 4 [7] = target: T1, Melanocortin receptor 4; test: Agonist activity at human MC4R stably expressed in human Flp-In-293 cells assessed as cAMP accumulation incubated for 45 mins in presence of IBMX by Lance Ultra cAMP assay; assay type: functional, cell-based
Melanocortin receptor 3 [8] = target: T4, Melanocortin receptor 3; test: Agonist activity at human MC3R stably expressed in human Flp-In-293 cells assessed as cAMP accumulation incubated for 45 mins in presence of IBMX by Lance Ultra cAMP assay; assay type: functional, cell-based
Melanocortin receptor 5 [9] = target: T3, Melanocortin receptor 5; test: Agonist activity at human MC5R stably expressed in human Flp-In-293 cells assessed as cAMP accumulation at 1 uM incubated for 45 mins in presence of IBMX by Lance Ultra cAMP assay; assay type: functional, cell-based
Melanocortin receptor 3 [10] = target: T4, Melanocortin receptor 3; test: Agonist activity at human MC3R stably expressed in human Flp-In-293 cells assessed as cAMP accumulation at 1 uM incubated for 45 mins in presence of IBMX by Lance Ultra cAMP assay; assay type: functional, cell-based; details: filed as agonist
[11] = target: T2, Melanocyte-stimulating hormone receptor; test: Agonist activity at human MC1R stably expressed in human Flp-In-293 cells assessed as cAMP accumulation at 1 uM incubated for 45 mins in presence of IBMX by Lance Ultra cAMP assay; assay type: functional, cell-based; details: filed as agonist
Target sequence in this assay (Q01726 whole entry, looked up): as the sequence (Q01726 whole entry) above

T1 sequence (P32245 whole entry): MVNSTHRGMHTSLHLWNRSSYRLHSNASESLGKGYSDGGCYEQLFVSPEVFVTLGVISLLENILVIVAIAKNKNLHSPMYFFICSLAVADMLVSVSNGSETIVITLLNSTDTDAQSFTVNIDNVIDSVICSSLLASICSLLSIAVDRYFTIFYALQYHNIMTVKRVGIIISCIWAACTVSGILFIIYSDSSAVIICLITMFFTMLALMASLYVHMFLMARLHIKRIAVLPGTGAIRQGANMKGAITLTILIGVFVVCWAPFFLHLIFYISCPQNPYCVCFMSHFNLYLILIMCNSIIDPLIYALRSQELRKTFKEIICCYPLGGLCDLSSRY

Ki (Melanocortin receptor 4 [1]; read-out: Ki) [nM]	Ki [2] [nM]	Ki (Melanocortin receptor 5 [3]) [nM]	EC50 (Melanocortin receptor 5 [4]) [nM]	Ki (Melanocortin receptor 3 [5]) [nM]	EC50 ([6]; read-out: pEC50 (converted)) [nM]	EC50 (Melanocortin receptor 4 [7]; read-out: pEC50 (converted)) [nM]	EC50 (Melanocortin receptor 3 [8]) [nM]	Activity (Melanocortin receptor 5 [9]) [%]	Ki (Melanocortin receptor 4 [1]; read-out: pKi (converted)) [nM]	Activity (Melanocortin receptor 5 [9]; filed as agonist) [%]	Activity (Melanocortin receptor 3 [10]) [%]	Activity [11] [%]	EC50 ([6]; read-out: EC50) [nM]	EC50 (Melanocortin receptor 4 [7]; read-out: EC50) [nM]	Compound
0.06	2.51	> 1000	295	174	16.6	0.135	63.1	–	–	–	–	–	–	–	C[C@@H]1NC(=O)c2cc(-c3cn([C@@H]4O[C@H](CO)[C@@H](O)[C@H](O)[C@H]4O)nn3)ccc2SC[C@@H](C(N)=O)NC(=O)[C@H](Cc2c[nH]c3ccccc23)NC(=O)[C@H](CCCNC(=N)N)NC(=O)[C@@H](Cc2ccccc2)NC(=O)[C@H](Cc2c[nH]cn2)NC1=O
–	–	–	–	–	–	–	–	3	–	–	–	–	–	–	N=C(N)NCCC[C@@H]1NC(=O)[C@@H](Cc2ccccc2)NC(=O)[C@H](Cc2cnc[nH]2)NC(=O)c2cc([N+](=O)[O-])ccc2SC[C@@H](C(N)=O)NC(=O)[C@H](Cc2c[nH]c3ccccc23)NC1=O
–	269	> 1000	–	813	50.1	316	–	–	0.331	60	42	–	–	–	N=C(N)NCCC[C@@H]1NC(=O)[C@@H](Cc2ccccc2)NC(=O)[C@H](Cc2c[nH]cn2)NC(=O)c2cc(N)ccc2SC[C@@H](C(N)=O)NC(=O)[C@H](Cc2c[nH]c3ccccc23)NC1=O
–	3.8	> 1000	–	263	2.69	0.501	39.8	34	0.141	–	–	–	–	–	C[C@H]1NC(=O)c2cc(C#N)ccc2SC[C@@H](C(N)=O)NC(=O)[C@H](Cc2c[nH]c3ccccc23)NC(=O)[C@H](CCCNC(=N)N)NC(=O)[C@@H](Cc2ccccc2)NC(=O)[C@H](Cc2c[nH]cn2)NC1=O
–	126	> 1000	–	316	1260	501	5010	–	1.58	–	–	–	–	–	NC(=O)[C@@H]1CSc2ccc([N+](=O)[O-])cc2C(=O)N[C@@H](Cc2cnc[nH]2)C(=O)N[C@H](Cc2ccccc2)C(=O)N[C@@H](CCCN=C(N)N)C(=O)N[C@@H](Cc2c[nH]c3ccccc23)C(=O)N1
–	158	> 1000	–	661	–	63.1	–	0	0.794	–	44	58	–	–	N#Cc1ccc2c(c1)C(=O)N[C@@H](Cc1c[nH]cn1)C(=O)N[C@H](Cc1ccccc1)C(=O)N[C@@H](CCCNC(=N)N)C(=O)N[C@@H](Cc1c[nH]c3ccccc13)C(=O)N[C@H](C(N)=O)CS2
–	56.2	> 1000	–	513	63.1	20	1260	11	3.02	–	–	–	–	–	C[C@@H]1NC(=O)c2cc([N+](=O)[O-])ccc2SC[C@@H](C(N)=O)NC(=O)[C@H](Cc2c[nH]c3ccccc23)NC(=O)[C@H](CCCNC(=N)N)NC(=O)[C@@H](Cc2ccccc2)NC(=O)[C@H](Cc2c[nH]cn2)NC1=O
–	–	–	–	–	20.9	–	–	–	–	64	73	–	24	0.98	C[C@@H]1NC(=O)c2cc(NC(=S)Nc3ccc4c(c3)C(=O)OC43c4ccc(O)cc4Oc4cc(O)ccc43)ccc2SC[C@@H](C(N)=O)NC(=O)[C@H](Cc2c[nH]c3ccccc23)NC(=O)[C@H](CCCNC(=N)N)NC(=O)[C@@H](Cc2ccccc2)NC(=O)[C@H](Cc2c[nH]cn2)NC1=O
–	3.39	> 1000	372	132	2.24	0.447	34.7	–	0.457	–	–	–	–	–	C#Cc1ccc2c(c1)C(=O)N[C@H](C)C(=O)N[C@@H](Cc1c[nH]cn1)C(=O)N[C@H](Cc1ccccc1)C(=O)N[C@@H](CCCNC(=N)N)C(=O)N[C@@H](Cc1c[nH]c3ccccc13)C(=O)N[C@H](C(N)=O)CS2
–	1.26	> 1000	–	7.94	9.77	6.31	31.6	5	1.26	–	–	–	–	–	C[C@@H]1NC(=O)[C@H](Cc2c[nH]c3ccccc23)NC(=O)[C@H](CCCNC(=N)N)NC(=O)[C@@H](Cc2ccccc2)NC(=O)[C@H](Cc2c[nH]cn2)NC(=O)c2cc([N+](=O)[O-])ccc2SC[C@@H](C(N)=O)NC1=O
–	64.6	> 1000	–	741	34.7	89.1	316	14	0.234	–	–	–	–	–	C#Cc1ccc2c(c1)C(=O)N[C@@H](Cc1c[nH]cn1)C(=O)N[C@H](Cc1ccccc1)C(=O)N[C@@H](CCCNC(=N)N)C(=O)N[C@@H](Cc1c[nH]c3ccccc13)C(=O)N[C@H](C(N)=O)CS2
–	1.12	> 1000	–	79.4	1.58	1	200	15	0.102	–	–	–	–	–	C[C@H]1NC(=O)c2cc([N+](=O)[O-])ccc2SC[C@@H](C(N)=O)NC(=O)[C@H](Cc2c[nH]c3ccccc23)NC(=O)[C@H](CCCNC(=N)N)NC(=O)[C@@H](Cc2ccccc2)NC(=O)[C@H](Cc2c[nH]cn2)NC1=O
–	3.55	> 1000	–	148	4.79	0.275	91.2	–	0.162	41	–	–	–	–	C[C@H]1NC(=O)c2cc(C(=N)N)ccc2SC[C@@H](C(N)=O)NC(=O)[C@H](Cc2c[nH]c3ccccc23)NC(=O)[C@H](CCCNC(=N)N)NC(=O)[C@@H](Cc2ccccc2)NC(=O)[C@H](Cc2c[nH]cn2)NC1=O
–	79.4	> 1000	–	437	33.9	5.01	7.94	1	0.871	–	–	–	–	–	C[C@H]1NC(=O)[C@H](Cc2c[nH]c3ccccc23)NC(=O)[C@H](CCCNC(=N)N)NC(=O)[C@@H](Cc2ccccc2)NC(=O)[C@H](Cc2c[nH]cn2)NC(=O)c2cc([N+](=O)[O-])ccc2SC[C@@H](C(N)=O)NC1=O
–	5.01	> 1000	–	97.7	10	1.58	50.1	17	0.148	–	–	–	–	–	C[C@H]1NC(=O)c2cc(N)ccc2SC[C@@H](C(N)=O)NC(=O)[C@H](Cc2c[nH]c3ccccc23)NC(=O)[C@H](CCCNC(=N)N)NC(=O)[C@@H](Cc2ccccc2)NC(=O)[C@H](Cc2c[nH]cn2)NC1=O
